Assay results: US5942518A, “Water-soluble fluoroethylcamptothecin derivative and process for production thereof” (priority 1995, dated 1999)
pKi: −log10 of the molar value. Structures can show the parent of a compound that is named as a salt.

Assays:
[1] = cited from earlier work
nucleic acid synthesis = conditions: background; cited from earlier work
[2] = system: mouse colonic cancer colon 26; assay: Antineoplastic effect against mouse colonic cancer colon 26 (Experimental Example 2); format: in vivo, CDF-1 female mice; conditions: for TGI (tumor growth inhibition rate): colon 26, tail vein, 3 times at 4-day intervals, day 17-19; for antineoplastic activity against the growth of advanced colonic cancer 26 tumor: mice, intravenous administration
Protocol: (§1) To CDF-1 female mice of 9-week age, 1×10^6 cells of mouse colonic cancer colon 26 were implanted respectively under the skin of the axillary fossa. The medicine was administered to the tail vein three times from six days after the administration when the tumor was detected by finger touch at intervals of four days. On the 17th to 19th days from the implantation,the tumors were enucleated and weighed. The antineoplastic effect is represented by the tumor growth inhibition rate (TGI=(1-T/C)×100) derived from the ratio (T/C) of the average tumor weight (T) of the medicine-administered group to the average tumor weight (C) of the control group.

[3] = Toxicity in the colon 26 mouse study; format: in vivo, CDF-1 female mice
Protocol: as §1

sarcoma 180 = assay: Antineoplastic effect against mouse sarcoma 180 tumor (Experimental Example 1); format: in vivo, ICR female mice; conditions: sarcoma 180, tail vein, 3 times at 4-day intervals, day 14
Protocol: To ICR female mice of 5-week age, 5×10^6 cells of sarcoma 180 were implanted respectively under the skin of the axillary fossa. The medicine was administered to the tail vein three times from the day next to the administration at intervals of four days. After 14 days from the implantation, the tumors were enucleated and weighed. The antineoplastic effect is represented by the tumor growth inhibition rate (TGI=(1-T/C)×100) derived from the ratio (T/C) of the average tumor weight (T) of the medicine-administered group to the average tumor weight (C) of the control group.

acetylcholine esterase = assay: Inhibition of acetylcholine esterase reaction (Experimental Example 3); format: biochemical
Chain of acetylcholine esterase (P22303 32-614): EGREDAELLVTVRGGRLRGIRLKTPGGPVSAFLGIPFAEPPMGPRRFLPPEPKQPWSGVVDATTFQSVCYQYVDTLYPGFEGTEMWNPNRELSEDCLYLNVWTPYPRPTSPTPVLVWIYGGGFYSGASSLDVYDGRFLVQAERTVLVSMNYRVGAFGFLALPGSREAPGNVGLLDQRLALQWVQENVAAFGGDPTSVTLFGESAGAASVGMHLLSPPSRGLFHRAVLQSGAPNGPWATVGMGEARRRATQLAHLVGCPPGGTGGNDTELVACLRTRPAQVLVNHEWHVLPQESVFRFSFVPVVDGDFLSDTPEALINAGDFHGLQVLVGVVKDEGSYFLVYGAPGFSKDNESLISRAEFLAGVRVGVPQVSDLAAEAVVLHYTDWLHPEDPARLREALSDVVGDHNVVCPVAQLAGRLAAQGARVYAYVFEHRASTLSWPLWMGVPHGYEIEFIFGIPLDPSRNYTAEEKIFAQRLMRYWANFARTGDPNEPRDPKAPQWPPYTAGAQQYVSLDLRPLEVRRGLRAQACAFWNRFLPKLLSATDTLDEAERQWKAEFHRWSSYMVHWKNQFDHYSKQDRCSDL
Protocol: The absorbance was measured at 412 nm. The reaction rate and the acetylthiocholine iodide concentration was plotted according to Lineweaver-Burk method to obtain Vmax, and Km. Then, the inhibition constant (Ki) was calculated from the inhibitor concentration.

CCC1(OC(=O)CN)C(=O)OCc2c1cc1n(c2=O)Cc2cc3cc4c(cc3nc2-1)OCO4 (stereo not drawn) [10,11-methylenedioxy-20-O-glycylcamptothecin]
toxicity / side effects ([1]; known camptothecin derivatives, background): highly toxic

CC[C@@]1(O)C(=O)OCc2c1cc1n(c2=O)Cc2cc3ccccc3nc2-1 [camptothecin, Camptothecin]
clinical toxicity ([1]; clinical tests in the United States): discontinued because of its toxicity | antineoplastic activity by inhibiting nucleic acid synthesis (nucleic acid synthesis): exhibit antineoplastic activity by inhibiting nucleic acid synthesis

CC[C@@]1(OC(=O)CN)C(=O)OCc2c1cc1n(c2=O)Cc2cc3cc4c(cc3nc2-1)OCO4.Cl [Compound 1, 10,11-Methylenedioxy-20-O-glycylcamptothecin hydrochloride]
TGI (tumor growth inhibition rate) ([2]; total dose 7.5 mg/kg): 21% | TGI (tumor growth inhibition rate) ([2]; total dose 15 mg/kg): 22% | TGI (tumor growth inhibition rate) ([2]; total dose 30 mg/kg): 44% | antineoplastic activity against the growth of advanced colonic cancer 26 tumor [2]: not inhibited | Toxicity ([3]; at a dose of as low as 20 mg/kg): toxic | Toxicity ([3]; colon 26 mice, tail vein, total dose 60 mg/kg): Toxic

CCc1c2c(nc3ccc(OC(=O)N4CCC(N5CCCCC5)CC4)cc13)-c1cc3c(c(=O)n1C2)COC(=O)[C@]3(O)CC [Irinotecan hydrochloride, irinotecan hydrochloride]
TGI (tumor growth inhibition rate) (sarcoma 180; total dose 30 mg/kg): 44% | TGI (tumor growth inhibition rate) (sarcoma 180; total dose 60 mg/kg): 75% | TGI (tumor growth inhibition rate) (sarcoma 180; total dose 120 mg/kg): 74% | TGI (tumor growth inhibition rate) ([2]; total dose 30 mg/kg): 8% | TGI (tumor growth inhibition rate) ([2]; total dose 60 mg/kg): 28% | TGI (tumor growth inhibition rate) ([2]; total dose 120 mg/kg): 34% | antineoplastic activity against the growth of advanced colonic cancer 26 tumor [2]: not inhibited | Toxicity ([3]; colon 26 mice, tail vein, total dose 120 mg/kg): Toxic

CCOc1ccc2nc3c(c(CC)c2c1)Cn1c-3cc2c(c1=O)COC(=O)C2(CCF)OC(=O)CN (stereo not drawn) [Example 1, 4-[(aminomethylcarbonyl)oxy]-9-ethoxy-11-ethyl-4-(2-fluoroethyl)-1H-pyrano[3',4':6,7]indolidino[1,2-b]quinoline-3,14(4H,12H)-dione hydrochloride]
TGI (tumor growth inhibition rate) (sarcoma 180; total dose 60 mg/kg): 83% | TGI (tumor growth inhibition rate) (sarcoma 180; total dose 120 mg/kg): 91% | TGI (tumor growth inhibition rate) ([2]; total dose 30 mg/kg): 28% | TGI (tumor growth inhibition rate) ([2]; total dose 60 mg/kg): 59% | TGI (tumor growth inhibition rate) ([2]; total dose 120 mg/kg): 81% | TGI (tumor growth inhibition rate) ([2]; total dose 180 mg/kg): 82% | pKi (acetylcholine esterase): 4.40 to 4.70
